# Test results reported in PubChem BioAssay AID248 (DTP/NCI, 2004).
# Toxic doses and inconclusive results are not listed.
# Tested on: L1210 leukemia ip in BDF1 mice, survival T/C
# Experiment: NCI In Vivo Anticancer Drug Screen. Data for tumor model L1210 Leukemia (intraperitoneal) in B6D2F1 (BDF1) mice
# Details: endpoint: mean survival time, higher = longer survival
# Summary of the method: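 Read-out is survival time, reported as the treated-group measurement over the vehicle-control measurement.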
# [1] = dose: 3.12 mg/kg/injection, schedule: Q01DX009 (ip), vehicle: Klucel (hydroxypropylcellulose) (HPC)
# [2] = dose: 6.25 mg/kg/injection, schedule: Q01DX009 (ip), vehicle: Klucel (hydroxypropylcellulose) (HPC)
# [3] = dose: 12.5 mg/kg/injection, schedule: Q01DX009 (ip), vehicle: Klucel (hydroxypropylcellulose) (HPC)
# [4] = dose: 50.0 mg/kg/injection, schedule: Q01DX009 (ip), vehicle: Klucel (hydroxypropylcellulose) (HPC)
# [5] = dose: 100.0 mg/kg/injection, schedule: Q01DX009 (ip), vehicle: Klucel (hydroxypropylcellulose) (HPC)
# [6] = dose: 200.0 mg/kg/injection, schedule: Q01DX009 (ip), vehicle: Klucel (hydroxypropylcellulose) (HPC)
smiles,measurement,setting,value
N=C(N)c1nn(C2OC(CO)C(O)C2O)c2ncnc(N)c12 (centres undefined),T/C,[1],102 % of control
same,T/C,[2],124 % of control
same,T/C,"dose: 9.0 mg/kg/injection, schedule: Q01DX005 (ip), vehicle: saline",159 % of control
same,T/C,[3],115 % of control
same,T/C,"dose: 15.0 mg/kg/injection, schedule: Q01DX005 (ip), vehicle: saline",185 % of control
same,T/C,"dose: 25.0 mg/kg/injection, schedule: Q01DX005 (ip), vehicle: saline",201 % of control
same,T/C,"dose: 42.0 mg/kg/injection, schedule: Q01DX005 (ip), vehicle: saline",204 % of control
CCCCS(=O)C1(CCC)OC1(c1ccccc1)c1ccccc1 (centres undefined),T/C,"dose: 100.0 mg/kg/injection, schedule: Q03DX002 (ip), vehicle: other",121 % of control
same,T/C,"dose: 200.0 mg/kg/injection, schedule: Q03DX002 (ip), vehicle: other",102 % of control
same,T/C,"dose: 400.0 mg/kg/injection, schedule: Q03DX002 (ip), vehicle: other",96 % of control
COc1ccc([N+](=O)[O-])cc1NC(=O)Nc1nccs1,T/C,[4],105 % of control
same,T/C,[5],105 % of control
same,T/C,[6],101 % of control
CCC[CH2][Tl]([Br])[CH2]CCC,T/C,"dose: 100.0 mg/kg/injection, schedule: Q04DX002 (ip), vehicle: saline with Tween-80",98 % of control
same,T/C,"dose: 200.0 mg/kg/injection, schedule: Q04DX002 (ip), vehicle: saline with Tween-80",103 % of control
same,T/C,"dose: 400.0 mg/kg/injection, schedule: Q04DX002 (ip), vehicle: saline with Tween-80",106 % of control
CCCCCC(=O)OCCOC(=O)CCCCC,T/C,"dose: 100.0 mg/kg/injection, schedule: Q01DX009 (ip), vehicle: saline with Tween-80",103 % of control
same,T/C,"dose: 200.0 mg/kg/injection, schedule: Q01DX009 (ip), vehicle: saline with Tween-80",101 % of control
same,T/C,"dose: 400.0 mg/kg/injection, schedule: Q01DX009 (ip), vehicle: saline with Tween-80",92 % of control
CCOP(=O)(OCC)OC(=O)N(CC)CC,T/C,"dose: 100.0 mg/kg/injection, schedule: Q04DX002 (ip), vehicle: saline",112 % of control
same,T/C,"dose: 200.0 mg/kg/injection, schedule: Q04DX002 (ip), vehicle: saline",120 % of control
CC(C)=C(CSC#N)S(=O)(=O)c1ccc(C)cc1,T/C,[1],103 % of control
same,T/C,[2],101 % of control
same,T/C,[3],97 % of control
CCCCN(C#N)CC(C)(C)[N+](=O)[O-],T/C,"dose: 111.0 mg/kg/injection, schedule: Q01DX Z (ip), vehicle: methylcellulose (MC)",103 % of control
same,T/C,"dose: 166.0 mg/kg/injection, schedule: Q01DX Z (ip), vehicle: methylcellulose (MC)",97 % of control
same,T/C,"dose: 250.0 mg/kg/injection, schedule: Q01DX Z (ip), vehicle: methylcellulose (MC)",108 % of control
O=c1[nH]c(C(F)(F)F)c(CCc2ccccc2)c(=O)[nH]1,T/C,"dose: 100.0 mg/kg/injection, schedule: Q01DX001 (ip), vehicle: Klucel (hydroxypropylcellulose) (HPC)",103 % of control
same,T/C,"dose: 200.0 mg/kg/injection, schedule: Q01DX001 (ip), vehicle: Klucel (hydroxypropylcellulose) (HPC)",110 % of control
same,T/C,"dose: 400.0 mg/kg/injection, schedule: Q01DX001 (ip), vehicle: Klucel (hydroxypropylcellulose) (HPC)",107 % of control
CCCCC(=O)N/N=C/c1ccc(OCC)c(OCC)c1,T/C,"dose: 100.0 mg/kg/injection, schedule: Q01DX001 (ip), vehicle: saline",102 % of control
same,T/C,"dose: 200.0 mg/kg/injection, schedule: Q01DX001 (ip), vehicle: saline",98 % of control
same,T/C,"dose: 400.0 mg/kg/injection, schedule: Q01DX001 (ip), vehicle: saline",102 % of control
S=c1c2ccccc2sn1-c1ccccc1,T/C,"dose: 100.0 mg/kg/injection, schedule: Q01DX001 (ip), vehicle: carboxymethylcellulose (CMC)",92 % of control
same,T/C,"dose: 200.0 mg/kg/injection, schedule: Q01DX001 (ip), vehicle: carboxymethylcellulose (CMC)",94 % of control
same,T/C,"dose: 400.0 mg/kg/injection, schedule: Q01DX001 (ip), vehicle: carboxymethylcellulose (CMC)",87 % of control
CC(Cc1ccccc1)NC(=O)CCNNC(=O)c1ccncc1 (centres undefined),T/C,[3],96 % of control
same,T/C,"dose: 25.0 mg/kg/injection, schedule: Q01DX009 (ip), vehicle: Klucel (hydroxypropylcellulose) (HPC)",100 % of control
same,T/C,[4],103 % of control
same,T/C,"dose: 50.0 mg/kg/injection, schedule: Q04DX003 (ip), vehicle: Klucel (hydroxypropylcellulose) (HPC)",98 % of control
same,T/C,[5],100 % of control
same,T/C,"dose: 100.0 mg/kg/injection, schedule: Q04DX003 (ip), vehicle: Klucel (hydroxypropylcellulose) (HPC)",96 % of control
same,T/C,[6],91 % of control
same,T/C,"dose: 200.0 mg/kg/injection, schedule: Q04DX003 (ip), vehicle: Klucel (hydroxypropylcellulose) (HPC)",88 % of control
